Experimental data as given in US7842703B2, “Substituted benzofused derivatives and their use as vanilloid receptor ligands” (Glenmark Pharmaceuticals S.A., priority 2005, dated 2010).
Counter-ions that a name gives are not always drawn.

Target: T1, Human TRPV1 expressing CHO cells (Homo sapiens, UniProt Q8NER1)
T1 construct: expressed in transfected cells; host or cells: CHO cells under G-418 selection
Assay: Screening for TRPV1 antagonist using the 45Calcium uptake assay (inhibition of capsaicin induced cellular uptake of radioactive calcium)
Assay type: cell-based
Settings: for IC50: inhibition of capsaicin (250 nM) induced ^45Ca uptake; for % inhibition of ^45Ca uptake at 1 μM / inhibition at 1 µM: test compound 1 μM, capsaicin 250 nM, relative to maximum ^45Ca uptake induced by capsaicin alone; for inhibition at 1 µM: CHO
Description: The inhibition of TRPV1 receptor activation was followed as inhibition of capsaicin induced cellular uptake of radioactive calcium which represents calcium influx exclusively through the plasma membrane associated TRPV1 receptor.
Stock solution of capsaicin was made in ethanol and test compounds in 100% DMSO. Stock solutions were diluted to appropriate final concentrations in assay buffer keeping the final DMSO concentration between 0.1% and 0.55%.
^45Ca was used at a final concentration of 2.5 μCi/ml (^45Ca, ICN).
Assay buffer was composed of F-12 DMEM medium supplemented with 1.8 mM CaCl2 (final conc.) and 0.1% Bovine serum albumin. (BSA from SIGMA)
Wash buffer was tyrodes solution supplemented with 0.1% BSA and 1.8 mM calcium. Lysis buffer contained 50 mM Tris-HCl, pH7.5, 150 mM NaCl, 1% Triton X-100, 0.5% deoxycholate and 0.1% Sodium dodicyl sulphate (SDS, SIGMA)
Assay was carried out with some modifications the of procedure as described by Toth et. al. (See Toth A et. al., Life Sciences 73 p 487-498, 2003). Human TRPV1 expressing CHO cells were grown in F-12 DMEM (Dulbecco's modified Eagle's medium—GIBCO) medium with 10% FBS (fetal bovine serum Hyclone), 1% penicillin-streptomycin solution, 400 μg/ml of G-418. Cells were seeded 48 h prior to the assay in 96 well plates so as to get ˜50,000 cells per well on the day of experiment. Plates were incubated at 37° C. in the presence of 5% CO2. Cells were then washed twice with 200 μl of assay buffer and re-suspended in 144 μl of the same. Assay was carried out at 30° C. in total volume of 200 μl. Test compounds were added to the cells fifteen minutes before addition of capsaicin, Final concentration of capsaicin in the assay was 250 nM. After 5 minutes of agonist treatment, drug was washed out and wells rinsed with 300 μl of ice cold wash buffer 3×. The cells were lysed in 50 μl lysis buffer for 20 min. 40 μl of cell lysate was mixed with 150 μl of Microscint PS, left overnight for equilibration. Radioactivity in samples was measured as counts per minute (cpm) using Packard Biosciences Top Count. The drug/vehicle/capsaicin treated ^45Ca uptake values were normalized over basal ^45Ca value. Data was expressed as % inhibition of ^45Ca uptake by test compound with respect to maximum ^45Ca uptake induced by capsaicin alone. IC50 value was calculated from dose response curve by nonlinear regression analysis using GraphPadPRISM software.

T1 sequence (Q8NER1 whole entry): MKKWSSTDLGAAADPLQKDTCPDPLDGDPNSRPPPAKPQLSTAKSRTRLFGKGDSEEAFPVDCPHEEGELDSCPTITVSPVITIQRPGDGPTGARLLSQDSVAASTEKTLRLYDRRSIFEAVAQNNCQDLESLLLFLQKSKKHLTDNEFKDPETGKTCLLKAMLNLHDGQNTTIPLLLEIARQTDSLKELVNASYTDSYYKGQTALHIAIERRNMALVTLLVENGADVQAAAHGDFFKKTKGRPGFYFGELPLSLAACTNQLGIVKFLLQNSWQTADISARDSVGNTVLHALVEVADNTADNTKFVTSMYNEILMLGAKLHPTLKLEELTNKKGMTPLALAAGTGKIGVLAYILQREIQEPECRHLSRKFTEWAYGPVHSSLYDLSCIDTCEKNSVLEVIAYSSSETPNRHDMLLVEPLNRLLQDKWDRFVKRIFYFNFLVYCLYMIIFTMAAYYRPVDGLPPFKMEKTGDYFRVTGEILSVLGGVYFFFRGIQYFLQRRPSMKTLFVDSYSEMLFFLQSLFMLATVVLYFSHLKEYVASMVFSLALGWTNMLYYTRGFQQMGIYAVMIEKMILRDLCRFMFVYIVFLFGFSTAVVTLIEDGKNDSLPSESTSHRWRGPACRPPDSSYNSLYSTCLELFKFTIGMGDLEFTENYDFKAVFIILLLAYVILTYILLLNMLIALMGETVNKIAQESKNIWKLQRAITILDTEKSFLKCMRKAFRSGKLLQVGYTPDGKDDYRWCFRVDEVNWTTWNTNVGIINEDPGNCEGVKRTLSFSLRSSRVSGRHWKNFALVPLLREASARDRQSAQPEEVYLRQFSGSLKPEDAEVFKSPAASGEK

| Compound | IC50 [nM] | % inhibition of ^45Ca uptake at 1 μM [%] | inhibition at 1 µM [%] |
| --- | --- | --- | --- |
| O=C(Nc1cccc2cnccc12)NC1CC2(CCOCC2)Oc2ccccc21 (racemic) [Example 2, (±) 1-(2′,3,3′,4,5′,6′-Hexahydrospiro-[2H]-1-benzopyran-2,4′-pyran-4-yl)-3-(isoquinoline-5-yl)urea] | 171 | 96.12 |  |
| O=C(Nc1cccc2ncccc12)NC1CC2(CCC2)Oc2ccccc21 (racemic) [Example 26, (±) 1-(3,4-Dihydrospiro[2H-1-benzopyran-2,1′-cyclobutan]-4-yl)-3-(quinolin-5-yl)urea] |  |  | 19.8 |
| Cc1ccc2nc(NC(=O)NC3CC4(CCC4)Oc4ccccc43)sc2c1 (racemic) [Example 18, (±) 1-(3,4-Dihydro-spiro[2H-1-benzopyran-2,1′-cyclobutane]-4-yl)-3-(6-methyl-1,3-benzothiazol-2-yl)urea] |  |  | < 50 |
| CC(=O)Nc1ccc2c(c1)C(NC(=O)Nc1cccc3cnccc13)CC1(CCC1)O2 (racemic) [Example 78, (±) 1-(6-Acetamido-3,4-dihydro-spiro[2H-1-benzopyran-2,1′-cyclobutane]-4-yl)-3-(isoquinolin-5-yl)urea] |  |  | < 50 |
| O=C(Nc1cccc2cnccc12)NC1CC2(CCC2)Oc2ccc([N+](=O)[O-])cc21 (racemic) [Example 77, (±) 1-(3,4-Dihydro-6-nitro-spiro[2H-1-benzopyran-2,1′-cyclobutane]-4-yl)-3-(isoquinolin-5-yl)urea] | 463 |  | > 50 |
| O=C(Nc1cccc2cnccc12)NC1CC2(CCC2)Oc2c(F)cc(F)cc21 (single isomer, unassigned; (-)) [Example 60, (−) 1-(6,8-Difluoro-3,4-Dihydro-spiro[2H-1-benzopyran-2,1′-cyclobutane]-4-yl)-3-(isoquinolin-5-yl)urea] |  | <50 |  |
| CC(=O)n1ncc2cc(NC(=O)NC3CC4(CCC4)Oc4ccccc43)ccc21 (racemic) [Example 19, (±) 1-(3,4-Dihydro-spiro[2H-1-benzopyran-2,1′-cyclobutane]-4-yl)-3-(1-acetyl-1H-indazol-5-yl)urea] |  |  | < 50 |
| O=C(Nc1cccc2cnccc12)NC1CC2(CCC2)Oc2c(Cl)cccc21 (racemic) [Example 49, (±) 1-(8-Chloro-3,4-dihydro-spiro[2H-1-benzopyran-2,1′-cyclobutane]-4-yl)-3-(isoquinolin-5-yl)urea] | 29.9 |  | > 50 |
| CN1CCC2(CC1)CC(NC(=O)Nc1cccc3cnccc13)c1ccccc1O2 (racemic) [Example 1, (±) 1-{3,4-Dihydro-1′-(methyl)spiro-[2H-1-benzopyran-2,4′-piperidine]-4-yl}-3-(isoquinoline-5-yl)urea] |  |  | 142 |
| Cc1cc2c(cc1Br)C(NC(=O)Nc1cccc3cnccc13)CC1(CCC1)O2 (racemic) [Example 67, (±) 1-(6-Bromo-3,4-dihydro-7-methylspiro[2H-1-benzopyran-2,1′-cyclobutane]-4-yl)-3-(isoquinolin-5-yl)urea] | 447 |  | > 50 |
| O=C(Nc1cccc2cnccc12)NC1CC2(CCC2)Oc2cc(OC(F)F)ccc21 (racemic) [Example 54, (±) 1-(7-Difluoromethoxy-3,4-dihydro-spiro[2H-1-benzopyran-2,1′-cyclobutane]-4-yl)-3-(isoquinolin-5-yl)urea. Hydrochloride] | 2.23 |  | > 50 |
| Cc1cc(C)nc(NC(=O)NC2CC3(CCC3)Oc3ccccc32)n1 (racemic) [Example 22, (±) 1-(3,4-Dihydro-spiro[2H-1-benzopyran-2,1′-cyclobutane]-4-yl)-3-(4,6-dimethylpyrimidin-2-yl)urea] |  |  | < 50 |
| Cc1nccc2c(NC(=O)NC3CC4(CCC4)Oc4ccccc43)cccc12 (racemic) [Example 8, (±) 1-(3,4-Dihydro-spiro[2H-1-benzopyran-2,1′-cyclobutane]-4-yl)-3-(1-methylisoquinolin-5-yl)urea] | 551 |  | > 50 |
| O=C(Nc1ccc(Cl)c2cnccc12)NC1CC2(CCC2)Oc2ccc(Cl)cc21 (racemic) [Example 70, (±) 1-(6-Chloro-3,4-dihydro-spiro[2H-1-benzopyran-2,1′-cyclobutane]-4-yl)-3-(8-chloroisoquinolin-5-yl)urea] |  |  | < 50 |
| O=C(NCc1ccncc1)N[C@H]1CC2(CCC2)Oc2ccccc21 [Example 37] |  |  | 0 |
| Cc1cc2c(NC(=O)NC3CC4(CCC4)Oc4ccc(F)cc43)cccc2cn1 (racemic) [Example 72, (±) 1-(3,4-Dihydro-6-fluoro-spiro[2H-1-benzopyran-2,1′-cyclobutane]-4-yl)-3-(3-methylisoquinolin-5-yl)urea] | 469 |  | > 50 |

Continued, values first:

| IC50 [nM] | % inhibition of ^45Ca uptake at 1 μM [%] | inhibition at 1 µM [%] | Compound |
| --- | --- | --- | --- |
|  |  | < 50 | Cn1cc2cc(NC(=O)NC3CC4(CCC4)Oc4ccccc43)ccc2n1 (racemic) [Example 15, (±) 1-(3,4-Dihydro-spiro[2H-1-benzopyran-2,1′-cyclobutane]-4-yl)-3-(2-methyl-2H-indazol-5-yl)urea] |
|  |  | < 50 | O=C(Nc1nc2ccc(Cl)cc2s1)NC1CC2(CCC2)Oc2ccccc21 (racemic) [Example 11, (±) 1-(3,4-Dihydro-spiro[2H-1-benzopyran-2,1′-cyclobutane]-4-yl)-3-(6-chloro-1,3-benzothiazol-2-yl)urea] |
|  |  | < 50 | O=C(Nc1cccc2cnccc12)NC1CC2(CCC2)Oc2cc(Cl)ccc21 (single isomer, unassigned; (-)) [Example 76, (−) 1-(7-Chloro-3,4-dihydro-spiro[2H-1-benzopyran-2,1′-cyclobutane]-4-yl)-3-(isoquinolin-5-yl)urea] |
| 15.8 |  | > 50 | O=C(Nc1cccc2cnccc12)NC1CC2(CCC2)Oc2cc(OC3CCCC3)ccc21 (racemic) [Example 53, (±) 1-(7-Cyclopentyloxy-3,4-dihydro-spiro[2H-1-benzopyran-2,1′-cyclobutane]-4-yl)-3-(isoquinolin-5-yl)urea] |
| 0.21 |  | > 50 | COc1ccc2c(c1)OC1(CCC1)CC2NC(=O)Nc1cccc2cnccc12 (racemic) [Example 47, (±) 1-(3,4-Dihydro-7-methoxy-spiro[2H-1-benzopyran-2,1′-cyclobutane]-4-yl)-3-(isoquinolin-5-yl)urea] |
| 404 |  | > 50 | O=C(Nc1cccc2cnccc12)NC1CC2(CCC2)Oc2ccc(Br)cc21 (racemic) [Example 65, (±) 1-(6-Bromo-3,4-dihydro-spiro[2H-1-benzopyran-2,1′-cyclobutane]-4-yl)-3-(isoquinolin-5-yl)urea] |
| 442 |  | > 50 | Cc1cc2c(NC(=O)NC3CC4(CCC4)Oc4cc(Cl)ccc43)cccc2cn1 (racemic) [Example 57, (±) 1-(7-Chloro-3,4-dihydro-spiro[2H-1-benzopyran-2,1′-cyclobutane]-4-yl)-3-(3-methylisoquinolin-5-yl)urea] |
| 5.2 |  | > 50 | O=C(Nc1cccc2cnccc12)NC1CC2(CCC2)Sc2ccccc21 (racemic) [Example 81, (±) 1-(3,4-dihydro-spiro[2H-1-benzothiopyran-2,1′-cyclobutan]-4-yl)-3-(isoquinolin-5-yl)urea] |
| 0.48 |  | > 50 | Cc1ccc2c(c1)OC1(CCC1)CC2NC(=O)Nc1cccc2cnccc12 (racemic) [Example 41, (±) 1-(3,4-Dihydro-7-methyl-spiro[2H-1-benzopyran-2,1′-cyclobutane]-4-yl-3-(isoquinolin-5-yl)urea] |
| 7.59 |  | > 50 | O=C(Nc1cccc2cnccc12)NC1CC2(CCC2)Oc2c(F)cc(F)cc21 (single isomer, unassigned; (+)) [Example 59] |
|  |  | < 50 | O=C(Nc1cccc2cnccc12)NC1CC2(CCC2)Oc2ccc(Cl)cc21 (single isomer, unassigned; (-)) [Example 64, (−) 1-(6-Chloro-3,4-dihydro-spiro[2H-1-benzopyran-2,1′-cyclobutane]-4-yl)-3-(isoquinolin-5-yl)urea] |
| 16.1 |  | > 50 | O=C(Nc1cccc2cnccc12)NC1CC2(CCC2)Oc2c(F)cc(F)cc21 (stereo not shown) [Example 48, 1-(6,8-Difluoro-3,4-dihydro-spiro[2H-1-benzopyran-2,1′-cyclobutane]-4-yl)-3-(isoquinolin-5-yl)urea] |
